Marks after values point to notes of the source that are not given here.
Legend:
[1] = system: human HCT-15 colon carcinoma; assay: Antitumor effect against s.c. transplanted HCT-15 tumors; assay type: in vivo, female BALB/c nude mice
From the text: Human colorectal adenocarcinoma cell line HCT-15 (ATCC CCL 225) is from the American Type Culture Collection (Rockville, Md., USA), and the cells are cultivated in vitro as recommended by the supplier. HCT-15 is an epithelial-like cell line. (Cancer Res. 39: 1020-25 [1979]) that is multi-drug resistant by virtue of over-expression of P-glycoprotein (P-gp, gp170, MDR-1;Anticancer Res. 11: 1309-12 [1991]; J. Biol. Chem. 264: 18031-40 [1989]; Int. J. Cancer 1991; 49: 696-703 [1991]) and glutathione-dependent resistance mechanisms (Int. J. Cancer 1991; 49: 688-95 [1991]).
(§1) Female or male BALB/c nu/nu (nude) mice are kept under sterile conditions (10 to 12 mice per Type III cage) with free access to food and water. Mice weigh between 20 and 25 grams at the time of tumor implantation. Tumors are established by subcutaneous injection of cells (minimum 2×10^6 cells in 100 μl PBS or medium) in carrier mice (4-8 mice per cell line). The resulting tumors are serially passaged for a minimum of three consecutive transplantations prior to start of treatment. Tumor fragments (approx. 25 mg) are implanted s.c. into the left flank of animals with a 13-gauge trocar needle while the mice are exposed to Forene (Abbott, Switzerland) anesthesia.
(§2) Tumor growth and body weights are monitored once or twice weekly. All treatments are administered intravenously (i.v.) and are initiated when a mean tumor volume of approximately 100 to 250 mm^3 is attained, depending upon the tumor type. Tumor volumes are determined using the formula […] (see Cancer Chemother. Pharmacol. 24:148-154, [1989]). Treatments with epothilone B vary the dose and the frequency of administration. Comparator agents are administered according to previously determined optimal treatment regimens. In addition to presenting changes in tumor volumes over the course of treatment, antitumor activity is expressed as T/C % (mean increase of tumor volumes of treated animals divided by the mean increase of tumor volumes of control animals multiplied by 100). Tumor. regression (%) represents the smallest mean tumor volume compared to the mean tumor volume at the start of treatment, according to the formula Regression (%)=(1−Vend/Vstart)×100(Vend=final mean tumor volume, Vstart=mean tumor volume at the start of treatment. Any animals in which the tumor has reached a size exceeding approximately 1.5 to 2.5 cm^3 are sacrificed. Details can be found below.
Tumor volumes are used as the primary indicator of activity of antitumor agents used alone or in combination, and changes in body weights are measured as an indicator of treatment tolerability.

[2] = system: human COLO 205 colon tumors; assay type: in vivo, female BALB/c nude mice; settings: 75 mg/kg, day 32
Procedure: as §1, §2

KB-8511 = KB-8511 vs KB-31; cited from earlier work
[3] = system: KB-8511 (Epidermoid, MDR); assay: Antiproliferative assay, KB-8511; assay type: cell-based, human; settings: KB-8511 vs parental line
Procedure: The human epidermal (mouth) carcinoma cell line KB-8511 (a P-gp over-expressing cell line derived from the epidermoid (mouth) KB-31 carcinoma cell line) is obtained from Dr. R. M. Baker, Roswell Park Memorial Institute (Buffalo, N.Y., USA) (for description see Akiyama et al., Somat. Cell. Mol. Genetics 11, 117-126 (1985) and Fojo A., et al., Cancer Res. 45, 3002-3007 (1985)) and is cultured as previously described (Meyer, T., et al., Int. J. Cancer 43 851-856 (1989)).
Antiproliferative assays are performed as previously described (Int. J. Cancer 43, 851-6 (1989)). Briefly, cells are seeded at 1.5×10^3 cells/well into 96-well microtiter plates and incubated overnight. Compounds are added in serial dilutions on day 1. The plates are then incubated for an additional 2 to 5 days, allowing for at least one cell doubling (cell line dependent), after which the cells are fixed with 3.3% v/v glutaraldehyde, washed with water and stained with 0.05% w/v methylene blue. After washing, the dye is eluted with 3% v/v HCl and the optical density measured at 665 nm with a SpectraMax 340 (Bucherer, Basel, Switzerland). IC50 values are determined by a computerized system (SoftPro, Bucherer, Basel, Switzerland) using the formula (OD test−OD start)/(OD control−OD start)×100. IC50 is defined as the drug concentration which leads to 50% of cells per well compared to control cultures (100%) at the end of incubation period.

[4] = 75 mg/kg, i.v., on days 14 and 21
[5] = 75 mg/kg, i.v., on days 14 and 21, mean ± SEM

O=c1[nH]cc(F)c(=O)[nH]1 [5-fluorouracil, reference compound]
Regression [1, 4]: none | T/C [1, 4]: 88% | % Body Weight Change [1, 5]: 9 ± 4% | D Body Weight [1, 5]: 2.0 ± 0.7 g | D Tumor Volume (mm^3) [1, 5]: 1654 ± 824 mm^3 | deaths ([1]; two 75 mg/kg administrations): 50% | T/C ([2]; i.v. every 7 days (days 14, 21, 28)): 18% | Regression ([2]; i.v. every 7 days): none | Δ Tumor Volume (mm^3) ([2]; i.v. every 7 days): 62 ± 12 mm^3

COc1cc2c(c(OC)c1OC)-c1ccc(OC)c(=O)cc1[C@@H](NC(C)=O)CC2 [colchicine]
relative resistance when compared with the KB-31 cells (KB-8511): ~40 fold

CC(=O)O[C@H]1C(=O)[C@@]2(C)[C@H]([C@H](OC(=O)c3ccccc3)[C@]3(O)C[C@H](OC(=O)[C@H](O)[C@@H](NC(=O)c4ccccc4)c4ccccc4)C(C)=C1C3(C)C)[C@]1(OC(C)=O)CO[C@@H]1C[C@@H]2O [paclitaxel, reference compound]
relative resistance, IC50 (resistant line)/IC50 (parental line) [3]: (343)^a

— patent US7875601B2, “Cancer treatment with epothilones” (Novartis AG, priority 1998, dated 2011)
